“Also recorded” adds a separate entry of the source. Like-named read-outs stand apart in the source and are kept apart here. Positions of bridges follow the written chain, without caps; N, C: chain ends. Residues, ends and D or L forms follow the SMILES beside them.
Key:
[1] = tested on: TF-dependent arterial thrombogenesis; assay: human ex vivo model of TF-dependent arterial thrombogenesis; conditions: around 1 mM final peptide/plasma concentration
Protocol: Apart from the ability of the peptide disulphide-cyclo-[H-Cys-Glu-Gln-Tyr-Cys-OH] to inhibit the complex formation between FVIIa and TF in various biochemical assays, we have also found this peptide to be efficacious in a clinically relevant ex vivo model of TF/FVII-dependent arterial human thrombogenesis.
The efficacy of peptides was tested in a human ex vivo model of TF-dependent arterial thrombogenesis, essentially as described (K. S. Sakariassen et al., 1990, Arteriosclerosis, 10, 276; U. .O slashed.rvim et al., 1995, Arterioscl. Thromb. Vasc. Biol., in press). Human non-anticoagulated blood was drawn directly from an antecubital vein and mixed with peptide solution in a heparin-coated mixing device situated proximally to a perfusion chamber which contained a TF-coated coverslip (Thromborel S®). Blood flow was kept at 10 mL/min for 4 minutes, producing a shear rate of 650 s^-1, typical for small arteries.

[2] = target: T1, factor VIIa/tissue factor (Homo sapiens, UniProt P13726); assay: two-stage chromogenic assay of factor VIIa/tissue factor-catalysed factor X activation; assay type: biochemical
T1 construct: purchased American Diagnostica, Inc. (TF); Novo Nordisk A/S (FVIIa)
Protocol: This was determined using a two-stage chromogenic biochemical in vitro assay, essentially as described (A. Kumar et al., 1991, J. Biol. Chem., 266, 915). In short: peptides were pre-incubated with lipidated TF (5 pM; from American Diagnostica, Inc., Greenwich, Conn., USA) and calcium (5 mM) for 10 minutes prior to addition of FVIIa (5 pM; from Novo Nordisk A/S, Gentofte, Denmark) and FX (20 nM; from Enzyme Research Laboratory, South Bend, Ind., USA). Reactions were terminated by addition of EDTA (50 mM) and formation of FXa was monitored using the chromogenic FXa substrate S2765 (0.4 mM; from Chromogenix, Mondal, Sweden) and measuring the absorbance increase at 405 nm in a microtitre plate reader. The concentration for half-maximal inhibition (IC50) was determined from dose-inhibition curves.

[3] = tested on: tissue factor-dependent plasma coagulation; assay: one-stage in vitro tissue factor-dependent plasma coagulation assay; assay type: biochemical, human; conditions: end-capped peptide tested up to 1.5 mM
Protocol: A one-stage in vitro coagulation assay was used as follows: peptides dissolved in 3-[N-morpholino]propane-sulphonic acid buffer (100 mM, pH 7.4) and NaCl (100 mM) were premixed with diluted (1:50 in saline) lipidated TF (Thromborel S®, Behringwerke AG, Marburg, Germany) and CaCl2 (5 mM final concentration) and the solutions were kept at 37° C. for 2 minutes. The coagulation reaction was initiated by addition of a thawed aliquot of frozen platelet-free human plasma pool (37° C.). The clotting-time for four replicate incubations were simultaneously determined automatically in an electromagnetic coagulometer (Thrombotrack 4, Nycomed Pharma AS, Oslo, Norway). The mean value for the clotting times determined from the replicate samples were converted to arbitrary TF units by a log-log calibration curve generated with Thromborel.

[4] = solubility in physiological media; assay type: physicochemical
[5] = target: binding of Factor VII to tissue factor (Homo sapiens, UniProt P13726); conditions: reported in PCT/GB94/01315; cited from earlier work
[6] = mean±standard deviation, TF 5 pM, FVIIa 5 pM, FX 20 nM, read-out: IC50 (concentration for half-maximal inhibition of FXa formation)
[7] = summary values in the description, read-out: IC50 in the two-stage chromogenic assay of A. Kumar et al.

T1 sequence (P13726 33-295): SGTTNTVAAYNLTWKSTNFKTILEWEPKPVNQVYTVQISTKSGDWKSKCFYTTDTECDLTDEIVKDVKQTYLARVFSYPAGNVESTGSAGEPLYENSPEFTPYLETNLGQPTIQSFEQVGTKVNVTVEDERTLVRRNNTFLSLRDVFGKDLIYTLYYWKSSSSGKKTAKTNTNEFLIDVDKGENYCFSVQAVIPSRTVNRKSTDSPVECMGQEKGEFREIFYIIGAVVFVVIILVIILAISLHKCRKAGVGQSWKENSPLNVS
binding of Factor VII to tissue factor, sequence (P13726 33-295): as above

Compound	effect on thrombus formation [1]	IC50 [2, 6]	fold lower potency versus disulphide-cyclo-[H-Cys-Glu-Gln-Tyr-Cys-OH] ([2]; same assay)	IC50 [2, 7]	effect on clotting time [3]	solubility properties in physiological media [4]	highest testable concentration due to solubility ([4]; coagulation assay buffer)	inhibition of binding of Factor VII to tissue factor [5]
H-YADKIEDTKL-OH [H-Tyr-Ala-Asp-Lys-Ile-Glu-Asp-Thr-Lys-Leu-OH]	no effect							
CC(=O)N[C@H]1CSSC[C@@H](C(N)=O)NC(=O)[C@H](Cc2ccc(O)cc2)NC(=O)[C@H](CCC(N)=O)NC(=O)[C@H](CCC(=O)O)NC1=O [disulphide-cyclo-[Ac-Cys-Glu-Gln-Tyr-Cys-NH2 ]] (Ac-CEQYC-NH2; disulfide 1-5)		265 ± 174 µM	26 fold	~200 µM	without any effect	poor solubility properties	ca. 1.5 mM	negligible
NC(=O)CC[C@@H]1NC(=O)[C@H](CCC(=O)O)NC(=O)[C@@H](N)CSSC[C@@H](C(=O)O)NC(=O)[C@H](Cc2ccc(O)cc2)NC1=O [disulphide-cyclo-[H-Cys-Glu-Gln-Tyr-Cys-OH]] (H-CEQYC-OH; disulfide 1-5)		10.1 ± 5 µM		10 µM		superior solubility properties; also recorded: freely soluble		

From patent publication US5962408A, “Disulphide-cyclo-[H-Cys-Glu-Gln-Tyr-Cys-OH], and its use in blood-clotting disorders” (Nycomed Imaging AS, priority 1994, dated 1999)
